Results from US20130005749A1, “NOVEL FORMULATION AND TREATMENT METHODS” (The University of Queensland, priority 2011, published 2013).

What was measured:
HPRT−/− C57BL/6 mice = experiment: VOD score in HPRT-/- mouse model; assay type: in vivo; settings: all dosage levels including 1 and 2.5 mg/kg body weight, gavage each day for 14 days
From the text: (§1) The total possible VOD score was 240.

[1] = test system: Winnie (C57Bl/6 Muc2 Winnie/Winnie) mice; experiment: Histological colitis scores in Winnie mouse model of spontaneous colitis; assay type: in vivo
Procedure: This experiment usesa mouse model of spontaneous colitis called Winnie(C57Bl/6 Muc2^Winnie/Winnie) due to a single SNP mutation in Muc2 in C57Bl/6 mice. The model resembles ulcerative colitis. The mutation confers an intestinal epithelial cell defect, which causes a Th17 dominant inflammatory response (Heazlewood et al. 2008 and Eri et al. 2011).
(§2) Male or female C57Bl/6 Winnie mice were gavaged twice daily for 11-days in an experiment with three groups (6 animals per group):
(§3) Group 1: 1.25 mg/kg 6TG evening and morning (total 2.5 mg/kg/d, N=6)
Group 2: vehicle control twice daily (N=6), or
(§4) Group 3: 2.5 mg/kg/d 6TG in the morning and vehicle gavage in the afternoon ([…]).
This experiment uses Winnie(C57Bl/6 Muc2^Winnie/Winnie).
(§5) Male or female C57Bl/6 Winnie mice were gavage once daily for 28-days in an experiment with two groups (6 animals per group):
(§6) Group 1: 0.5 mg/kg 6TG once daily gavage
Group 2: vehicle control (N=6),

[2] = test system: Winnie (C57Bl/6 Muc2 Winnie/Winnie) mice; experiment: SOS in Winnie mice; assay type: in vivo
Procedure: as §1, §2, §3, §4, §5, §6

[3] = test system: Winnie (C57Bl/6 Muc2 Winnie/Winnie) mice; experiment: Immunosuppression (venous blood leukocytes) and myelotoxicity in Winnie mice; assay type: in vivo; settings: for immunosuppression (reductions in venous blood leukocytes): 11 days
Procedure: as §2, §3, §4, §5, §6

ulcerative colitis = experiment: Human patient R-LS with ulcerative colitis
Procedure: Because treatment with AZA and 6-MP was not an option, they were treated instead with 6-TG using the conventional therapeutic protocol, namely bolus administration of 40 mg per day (R-LS weighs approximately 60 kg) and 5-aminosalicylic acid.
Again, they were treated with 6-TG using the conventional therapeutic protocol, namely bolus administration of 40 mg per day and balsalazide. […] Maintenance therapy to prevent relapse was again prescribed using a lower dose of balsalazide.
Given their clinical history, the inventors were reluctant to prescribe another bolus dose of 6-TG due to the known hepatotoxic side-effects that could occur.
Accordingly, R-LS was given 60 mg per day 6-TG in a divided dosage (3 separate doses of equal amounts). The doses were given at intervals throughout the day.

acute childhood leukemia = settings: cited from earlier work; for prevalence of VOD in patients: acute childhood leukemia cases, Stork et al. 2010
C57BL/6 mice = experiment: Veno-occlusive disease (VOD/SOS) blinded histological score in C57BL/6 mice; settings: 10 days
From the text: Veno-occlusive disease (or “VOD”) in each mouse was scored in a blinded fashion based on predetermined scoring criteria for sinusoidal endothelial damage (maximum 60), hepatic central vein damage (maximum 60) and inflammatory cell infiltrates using haematoxylin-eosin sections counterstained with vWF for endothelial cells and F4/80 for macrophages (maximum 120). The total possible VOD score was 240.
VOD was scored using the method described in Example 1.
Two groups of C57BL/6 mice were administered a large bolus dose of 6-TG (2.5 mg/kg body weight/day) either (1) orally (by gavage) or (2) intraperitoneally for a period of 10 days.
VOD in each mouse was then scored using the method described in Example 1.

[4] = test system: inflammatory bowel disease; settings: after one year; Ansari et al. 2008; cited from earlier work
[5] = 0.5 mg/kg once daily gavage, 28 days

Nc1nc2nc[nH]c2c(=S)[nH]1 [Formulation 6-TG, 2-amino-6,7-dihydro-3H-purine-6-thione]
VOD score (HPRT−/− C57BL/6 mice): VOD was shown to be abrogated | Histological colitis scores ([1]; 0.5 mg/kg/d once daily gavage, 28 days): significantly improved spontaneous colitis | Histological colitis scores ([1]; 1.25 mg/kg twice daily gavage, 11 days): significantly improved spontaneous colitis | Histological colitis scores ([1]; 2.5 mg/kg/d gavaged once daily, 11 days): significantly improved spontaneous colitis | SOS [2, 5]: did not occur | SOS ([2]; 2.5 mg/kg/d once daily gavage × 11 days): causes SOS | SOS ([2]; split 1.25 mg/kg b.d dose, 11 days): SOS is largely avoided | Immunosuppression [3, 5]: mild | myelotoxicity [3, 5]: did not have myelotoxicity | immunosuppression (reductions in venous blood leukocytes) ([3]; single full dosing 2.5 mg/kg/d): moderate immunosuppression | immunosuppression (reductions in venous blood leukocytes) ([3]; split dosing 1.25 mg/kg twice daily): moderate immunosuppression | response to the treatment (ulcerative colitis; 60 mg per day in 3 separate equal doses, six months (relapse December 2010)): once again effective | response to the treatment (ulcerative colitis; bolus 40 mg per day with 5-aminosalicylic acid, after 4 months (2003)): extremely positive response | response to the treatment (ulcerative colitis; bolus 40 mg per day with balsalazide, ~5-6 months (relapse 2006)): positive response | clinical effectiveness in treating the disease compared with 6-MP (acute childhood leukemia; Stork et al. 2010 (and others)): equivalent or even more clinically effective | prevalence of VOD in patients (acute childhood leukemia): high prevalence of VOD | VOD (C57BL/6 mice; 2.5 mg/kg body weight/day bolus by oral gavage): exhibited VOD | VOD (C57BL/6 mice; 2.5 mg/kg body weight/day bolus intraperitoneally): VOD was not observed

Cn1cnc([N+](=O)[O-])c1Sc1ncnc2nc[nH]c12 [AZA, 6-(3-methyl-5-nitroimidazol-4-yl)sulfanyl-7H-purine]
adverse reactions (ulcerative colitis; human, in vivo): life-threatening adverse reactions | patients who stop therapy due to side-effects or non-responsiveness [4]: approximately 40%

O=C(O)c1cc(/N=N/c2ccc(S(=O)(=O)Nc3ccccn3)cc2)ccc1O [sulfasalazine]
adverse reactions (ulcerative colitis; patient history before 2003): life-threatening adverse reactions

Sc1ncnc2nc[nH]c12 [Formulation 6-MP, 3,7-dihydropurine-6-thione]
adverse reactions (ulcerative colitis; human, in vivo): life-threatening adverse reactions | prevalence of VOD in patients (acute childhood leukemia): not observed | patients who stop therapy due to side-effects or non-responsiveness [4]: approximately 40%
